Assays:
RBL-2H3 cells [1] = assay: Fluo-4 calcium assay, RBL-2H3 cells (Example 1); format: cell-based, rat
Method: FIGS. 3A-3H. A15 inhibits calcium influx in RBL-2H3 cells and BMMCs. RBL-2H3 cells (FIGS. 3A-3D) and BMMCs (FIGS. 3E-3H) were plated and incubated overnight prior to treatments. For DNP-BSA treatments, overnight incubation also included 1 μg/mL IgE anti-DNP. Prior to stimulation, cells were washed and loaded with the fluorescent, calcium-sensitive dye fluo-4 AM using the Fluo-4 AM Direct™ Calcium Assay Kit and fluorescence was measured on a microplate reader. Calcium influx was triggered in all experiments using either 1 μM A23187 or 50 ng/mL DNP-BSA, as indicated. Bar graphs represent the means±SEM of the Δ in RFU's at 1 min post-A23187- or DNP-BSA-stimulation from 3 independent experiments (FIGS. 3B, 3D, 3F, 3H). Statistical analysis was performed using a one-way ANOVA with Dunnett's post-hoc test, *p<0.05, **p<0.01, ***p<0.001.
FIG. 9. A15 inhibits calcium influx in RBL-2H3 cells. Prior to stimulation, cells were washed and loaded with the fluorescent, calcium-sensitive dye fluo-4 AM using the Fluo-4 AM Direct™ Calcium Assay Kit. Cells were treated with 100 μM A15 (D, E, F), 0.25% ethanol only (vehicle) (A, B, C), 1 μM A23187 (G, H, I), and 100 μM A15 in combination with 1 μM A23187 (J, K, L) as indicated. Images were acquired at 30, 60, and 120 seconds, post-stimulation. Images are representative of several experiments.
RBL-2H3, BMMC, RAW 264.7, or Jurkat cells were plated in clear-bottom, black, 96-well plates (BioExpress, Kaysville, Utah) and incubated overnight with media only or media containing IgE anti-DNP. Cells were loaded with the calcium-sensitive dye fluo-4 AM using the Fluo-4 Direct™ Calcium Assay Kit (Thermo Fisher Scientific) according to the manufacturer's instructions by incubating at 37° C. for 30 min followed by 30 min at room temperature. Prior to stimulation, baseline fluorescent readings were measured from triplicate wells in 5 s intervals for 1 min using a Synergy HT microplate reader with 485/20 nm excitation and 528/20 nm emission filters. Cells were then treated with either 1 μM A23187 or 50 ng/mL DNP-BSA prepared in calcium- and magnesium-containing or calcium- and magnesium-free HBSS with 20 mM HEPES, and fluorescence was measured in 10 s intervals for 2 min. The final concentration of ethanol was 0.25% in these assays. The average baseline fluorescence of each well was subtracted from the stimulated fluorescent values to calculate the change (Δ) in RFU's and graphed as shown.
Cells loaded with fluo-4 were treated and observed with an Axioskop 2 microscope (Zeiss, Oberkochen, Germany) using a fluorescent illuminator HXP-120 light source and images were acquired at 30, 60, or 120 sec after stimulation with a AxioCam MRc5 camera (Zeiss) and AxioVision software (Zeiss).

[2] = Paw withdrawal latency to heat, cold and touch after topical administration; format: in vivo; conditions: topical in mineral oil on mouse paws
Method: FIG. 12. Antinociceptive effect of topical administration of alkamide A15. Measured paw withdrawal latency to Hargreave's (A) cold assay using dry ice (B) and touch using von-Frey (C). Data were analyzed using parametric evaluation (AUC).
Several different model systems were utilized for these experiments. In one model, dorsal root ganglia were obtained from mice and the neurons cultured in vitro. The neurons were then stimulated in the presence/absence of A15 and YM8-85 and the calcium responses monitored by fluorescence microscopy. In the second model, the alkamides were applied to mouse skin in mineral oil. The reactions of these mice to heat, cold, and tactile stimulation was then compared with mice that had not received treatment with A15. In a third model, mice were sensitized to the chemical compound toluene-2,4-diisocyanate (TDI). TDI is an industrial chemical which causes hypersensitive skin lesions and itching in exposed humans and animals. The physiological response to TDI is complex involving type 2 T lymphocytes, cytokines, mast cells, and neurons. Alkamides were applied to sensitized animals and then ear swelling and bouts of scratching were monitored.
In vivo responses to painful stimuli. A15 was tested with mice to determine whether the in vitro inhibitory responses noted in FIG. 11 are also seen in vivo. A15 was mixed in mineral oil and added to mouse paws prior to stimulation with heat, cold, or touch. […] Sensations of touch are mediated by distinct families of mechanoreceptors which are apparently unaffected by A15.

RBL-2H3 cells [3] = assay: β-Hexosaminidase release assay (Example 3); format: cell-based, rat
Method: FIGS. 21A-21D. The inhibition of degranulation is dependent on the length of the alkamide fatty acid chain. RBL-2H3 cells were plated overnight, stimulated with 1 μM A23187 (FIG. 21A) or 5 ng/mL DNP-BSA (FIG. 21B) for 1 h in the absence or presence of each compound. Graphs display the mean percent β-hex release. Data are presented as the mean of 4 experiments. Percent inhibition of degranulation of A23187 (FIG. 21C) or DNP-BSA (FIG. 21D) using data from A and B, respectively. *P<0.05, **P<0.01, ***P<0.001, one-way ANOVA with Dunnett's post hoc test compared to vehicle (A, B) or A15 (C, D).
RBL-2H3 cells (1.0×10^5 cells) were incubated with or without 0.1 μg/mL of IgE-DNP overnight in a 96 well plate at 37° C. with 5% CO2. The cells were washed with Tyrode's buffer and assayed with few modifications (Kuehn, Radinger, & Gilfillan, 2010). Briefly, IgE-DNP sensitized cells were stimulated 1 hour with 5 ng/mL of DNP-BSA in the absence or presence of each compound and incubated at 37° C. with 5% CO2. For experiments using only A23187 as the stimulant, cells were washed with Tyrode's buffer and stimulated 1 hour with 1 μM A23187 in the absence or presence of each compound and incubated at 37° C. with 5% CO2. The stimulated cells were centrifuged at 1200×g for 5 minutes. The supernatant or cell lysate (30 μL) was incubated with 3.4 mg/mL of p-NAG (10 μL) for 1 hour at 37° C. The reaction was terminated by addition of 0.2 M sodium carbonate (pH 10) and the absorbance was read at OD405 nm on a BioTek Synergy HT microplate reader. The total 3-hexosaminidase released from the cell was calculated as the difference between the OD of the supernatant and blank plus the difference between the OD of the lysate and blank. The percent β-hexosaminidase released from the cell was calculated as the difference between the OD of the supernatant and blank divided by the total β-hexosaminidase released from the cell multiplied by 100: ODsupernatant−ODblank/[(ODlysate−ODblank)+(ODsupernatant−ODblank)]*100.

For `CCCCCCC/C=C/C=C/C(=O)NCC(C)C` [A15, (2E,4E)-N-Isobutyldodeca-2,4-dienamide], the calcium response (RBL-2H3 cells [1]; RBL-2H3 cells treated with IgE anti-DNP and DNP-BSA) was “blocked the calcium response”, the inhibition at 100 µM (RBL-2H3 cells [1]; Rattus norvegicus, 1 min, A23187-treated RBL-2H3 cells, 100 μM, 1 min post-stimulation, read-out: inhibition of rise in intracellular calcium) was 83.2% and the “constitutive fluorescence in unstimulated cells, compared to vehicle” value (RBL-2H3 cells [1]; unstimulated RBL-2H3 cells, 100 μM, pixel intensity, n=5 fields) was “did not cause a significant change in the level of constitutive fluorescence”. For the same compound, the “paw withdrawal latency to cold (dry ice)” value [2] was “increased withdrawal latency”, the “paw withdrawal latency to heat (Hargreave's)” value [2] was “increased withdrawal latency” and the “touch latency (von-Frey)” value [2] was “did not affect touch latency”. For the same compound, the “percent inhibition of degranulation” value (RBL-2H3 cells [3]; 5 ng/mL DNP-BSA, 1 hour) was 27% and the “percent inhibition of degranulation” value (RBL-2H3 cells [3]; 1 μM A23187, 1 hour) was 47%.
